Measurements published in patent US6355799B1, “Substituted benzene compounds, process for their preparation, and herbicidal and defoliant compositions containing them” (ISK Americas Incorporated, priority 1997, dated 2002).

Key:
Assay type in all cases: in vivo
[1] = test system: redroot pigweed (Amaranthus retroflexus, AMARE); assay: Pre-emerge test, greenhouse herbicide activity screening; conditions: pre-emerge, 14 days after application, rating scale 0-100
How it was run: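 Rating: 0–100 visual injury, 14 DAA. Application: acetone, 187 l/ha, 15–1000 g ai/ha, flat-fan track sprayer with nozzle 40–45 cm above soil or canopy. Post-emerge runs used 0.25% v/v surfactant on 2–3 leaf plants.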

[2] = test system: barnyardgrass (Echinochloa crus-galli, ECHCG); assay: as above; conditions: pre-emerge, 14 days after application, rating scale 0-100
How it was run: (§1)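 Sandy loam pots; pre-emerge: sown 1 d pre-spray, surface-watered after, then bottom-watered. Post-emerge: sown 8–21 d before, 2–3 leaf stage, + 0.25% v/v NIS, bottom-watered. Acetone, 187 l/ha track spray, 15–1000 g ai/ha. 0–100 injury score, day 14.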

[3] = test system: green foxtail (Setaria viridis, SETVI); assay: as above; conditions: pre-emerge, 14 days after application, rating scale 0-100
How it was run: as §1

[4] = test system: ivyleaf morningglory (Ipomoea hederacea, IPOHE); assay: as above; conditions: pre-emerge, 14 days after application, rating scale 0-100
How it was run: as §1

[5] = test system: johnsongrass (Sorghum halepense, SORHA); assay: as above; conditions: pre-emerge, 14 days after application, rating scale 0-100
How it was run: as §1

[6] = test system: lambsquarters (Chenopodium album, CHEAL); assay: as above; conditions: pre-emerge, 14 days after application, rating scale 0-100
How it was run: as §1

[7] = test system: large crabgrass (Digitaria sanguinalis, DIGSA); assay: as above; conditions: pre-emerge, 14 days after application, rating scale 0-100
How it was run: as §1

[8] = test system: sicklepod (Cassia obtusifolia, CASOB); assay: as above; conditions: pre-emerge, 14 days after application, rating scale 0-100
How it was run: as §1

[9] = test system: velvetleaf (Abutilon theophrasti, ABUTH); assay: as above; conditions: pre-emerge, 14 days after application, rating scale 0-100
How it was run: as §1

[10] = test system: field corn (Zea mays L., var. Dekalb 535, CORN); assay: Pre-emerge test, crop safety; conditions: pre-emerge, 14 days after application, rating scale 0-100
How it was run: (§2)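 Herbicidal damage is scored 0 (none) to 100 (complete plant death) two weeks after a simulated field spray. Rates span 15–1000 g ai/ha, delivered in acetone at 187 l/ha. For post-emergence treatments, plants have 2–3 leaves and the spray carries 0.25% v/v non-ionic surfactant.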

[11] = test system: upland rice (Oryza sp., var. Tebonnet, RICE); assay: Pre-emerge test, crop safety; conditions: pre-emerge, 14 days after application, rating scale 0-100
How it was run: as §2

[12] = test system: barnyardgrass (Echinochloa crus-galli, ECHCG); assay: Post-emerge test, greenhouse herbicide activity screening; conditions: post-emerge, 14 days after application, rating scale 0-100
How it was run: (§3)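 Fourteen days after spraying, crop and weed injury was graded visually from 0, no effect, to 100, every plant dead. Test substances were dissolved in acetone and applied at 15–1000 g ai/ha with a flat-fan nozzle. Application was either pre-emergence, one day after sowing, or post-emergence at the 2–3 leaf stage.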

[13] = test system: green foxtail (Setaria viridis, SETVI); assay: as above; conditions: post-emerge, 14 days after application, rating scale 0-100
How it was run: as §3

[14] = test system: ivyleaf morningglory (Ipomoea hederacea, IPOHE); assay: as above; conditions: post-emerge, 14 days after application, rating scale 0-100
How it was run: as §3

[15] = test system: johnsongrass (Sorghum halepense, SORHA); assay: as above; conditions: post-emerge, 14 days after application, rating scale 0-100
How it was run: as §3

[16] = test system: lambsquarters (Chenopodium album, CHEAL); assay: as above; conditions: post-emerge, 14 days after application, rating scale 0-100
How it was run: as §3

[17] = test system: large crabgrass (Digitaria sanguinalis, DIGSA); assay: as above; conditions: post-emerge, 14 days after application, rating scale 0-100
How it was run: as §3

[18] = test system: redroot pigweed (Amaranthus retroflexus, AMARE); assay: as above; conditions: post-emerge, 14 days after application
How it was run: as §3

[19] = test system: sicklepod (Cassia obtusifolia, CASOB); assay: as above; conditions: post-emerge, 14 days after application, rating scale 0-100
How it was run: as §3

[20] = test system: velvetleaf (Abutilon theophrasti, ABUTH); assay: as above; conditions: post-emerge, 14 days after application, rating scale 0-100
How it was run: as §3

[21] = test system: field corn (Zea mays L., var. Dekalb 535, CORN); assay: Post-emerge test, crop safety; conditions: post-emerge, 14 days after application, rating scale 0-100
How it was run: as §1

[22] = test system: upland rice (Oryza sp., var. Tebonnet, RICE); assay: Post-emerge test, crop safety; conditions: post-emerge, 14 days after application, rating scale 0-100
How it was run: as §1

[23] = 63 g ai/ha, rating scale 0-100 (0 no damage, 100 complete death)
[24] = 250 g ai/ha, rating scale 0-100

Compound: COc1c(Cl)cc(F)c(-n2c(=O)cc(C(F)(F)F)n(C)c2=O)c1NN=CC1CC1 [Compound 15-11]
- phytotoxicity rating AMARE ([1]; 63 g ai/ha): 100
- phytotoxicity rating AMARE ([1]; 250 g ai/ha): 100
- phytotoxicity rating ECHCG ([2]; 63 g ai/ha): 100
- phytotoxicity rating ECHCG ([2]; 250 g ai/ha): 100
- phytotoxicity rating SETVI ([3]; 63 g ai/ha): 100
- phytotoxicity rating SETVI ([3]; 250 g ai/ha): 100
- phytotoxicity rating IPOHE ([4]; 63 g ai/ha): 100
- phytotoxicity rating IPOHE ([4]; 250 g ai/ha): 100
- phytotoxicity rating SORHA ([5]; 63 g ai/ha): 100
- phytotoxicity rating SORHA ([5]; 250 g ai/ha): 100
- phytotoxicity rating CHEAL ([6]; 63 g ai/ha): 100
- phytotoxicity rating CHEAL ([6]; 250 g ai/ha): 100
- phytotoxicity rating DIGSA ([7]; 63 g ai/ha): 100
- phytotoxicity rating DIGSA ([7]; 250 g ai/ha): 100
- phytotoxicity rating CASOB ([8]; 63 g ai/ha): 100
- phytotoxicity rating CASOB ([8]; 250 g ai/ha): 100
- phytotoxicity rating ABUTH ([9]; 63 g ai/ha): 100
- phytotoxicity rating ABUTH ([9]; 250 g ai/ha): 100
- phytotoxicity rating CORN ([10]; 63 g ai/ha): 100
- phytotoxicity rating CORN ([10]; 250 g ai/ha): 100
- phytotoxicity rating RICE ([11]; 63 g ai/ha): 100
- phytotoxicity rating RICE ([11]; 250 g ai/ha): 100
- Post-emerge Herbicidal Activity ECHCG (phytotoxicity rating) ([12]; 63 g ai/ha): 50
- Post-emerge Herbicidal Activity ECHCG (phytotoxicity rating) ([12]; 250 g ai/ha): 99
- Post-emerge Herbicidal Activity SETVI (phytotoxicity rating) ([13]; 63 g ai/ha): 40
- Post-emerge Herbicidal Activity SETVI (phytotoxicity rating) ([13]; 250 g ai/ha): 80
- Post-emerge Herbicidal Activity IPOHE (phytotoxicity rating) ([14]; 63 g ai/ha): 100
- Post-emerge Herbicidal Activity IPOHE (phytotoxicity rating) ([14]; 250 g ai/ha): 100
- Post-emerge Herbicidal Activity SORHA (phytotoxicity rating) ([15]; 63 g ai/ha): 50
- Post-emerge Herbicidal Activity SORHA (phytotoxicity rating) ([15]; 250 g ai/ha): 99
- Post-emerge Herbicidal Activity CHEAL (phytotoxicity rating) ([16]; 63 g ai/ha): 100
- Post-emerge Herbicidal Activity CHEAL (phytotoxicity rating) ([16]; 250 g ai/ha): 100
- Post-emerge Herbicidal Activity DIGSA (phytotoxicity rating) ([17]; 63 g ai/ha): 50
- Post-emerge Herbicidal Activity DIGSA (phytotoxicity rating) ([17]; 250 g ai/ha): 95
- Post-emerge Herbicidal Activity AMARE (phytotoxicity rating) [18, 23]: 95
- Post-emerge Herbicidal Activity AMARE (phytotoxicity rating) [18, 24]: 100
- Post-emerge Herbicidal Activity CASOB (phytotoxicity rating) ([19]; 63 g ai/ha): 90
- Post-emerge Herbicidal Activity CASOB (phytotoxicity rating) ([19]; 250 g ai/ha): 100
- Post-emerge Herbicidal Activity ABUTH (phytotoxicity rating) ([20]; 63 g ai/ha): 100
- Post-emerge Herbicidal Activity ABUTH (phytotoxicity rating) ([20]; 250 g ai/ha): 100
- Post-emerge Herbicidal Activity CORN (crop damage rating) ([21]; 63 g ai/ha): 45
- Post-emerge Herbicidal Activity CORN (crop damage rating) ([21]; 250 g ai/ha): 85
- Post-emerge Herbicidal Activity RICE (crop damage rating) ([22]; 63 g ai/ha): 65
- Post-emerge Herbicidal Activity RICE (crop damage rating) ([22]; 250 g ai/ha): 99

Compound: COc1c(Cl)cc(F)c(-n2c(=O)cc(C(F)(F)F)n(C)c2=O)c1SC [Compound 17-1, 3-(4-chloro-6-fluoro-3-methoxy-2-thiomethylphenyl)l-methyl-6-trifluoromethyl-2,4(1H, 3H)-pyrimidinedione]
- phytotoxicity rating AMARE ([1]; 63 g ai/ha): 30
- phytotoxicity rating AMARE ([1]; 250 g ai/ha): 90
- phytotoxicity rating ECHCG ([2]; 63 g ai/ha): 0
- phytotoxicity rating ECHCG ([2]; 250 g ai/ha): 70
- phytotoxicity rating SETVI ([3]; 63 g ai/ha): 50
- phytotoxicity rating SETVI ([3]; 250 g ai/ha): 80
- phytotoxicity rating IPOHE ([4]; 63 g ai/ha): 10
- phytotoxicity rating IPOHE ([4]; 250 g ai/ha): 70
- phytotoxicity rating SORHA ([5]; 63 g ai/ha): 0
- phytotoxicity rating SORHA ([5]; 250 g ai/ha): 60
- phytotoxicity rating CHEAL ([6]; 63 g ai/ha): 90
- phytotoxicity rating CHEAL ([6]; 250 g ai/ha): 100
- phytotoxicity rating DIGSA ([7]; 63 g ai/ha): 20
- phytotoxicity rating DIGSA ([7]; 250 g ai/ha): 80
- phytotoxicity rating CASOB ([8]; 63 g ai/ha): 0
- phytotoxicity rating CASOB ([8]; 250 g ai/ha): 80
- phytotoxicity rating ABUTH ([9]; 63 g ai/ha): 95
- phytotoxicity rating ABUTH ([9]; 250 g ai/ha): 100
- phytotoxicity rating CORN ([10]; 63 g ai/ha): 0
- phytotoxicity rating CORN ([10]; 250 g ai/ha): 10
- phytotoxicity rating RICE ([11]; 63 g ai/ha): 10
- phytotoxicity rating RICE ([11]; 250 g ai/ha): 30
- Post-emerge Herbicidal Activity ECHCG (phytotoxicity rating) ([12]; 63 g ai/ha): 0
- Post-emerge Herbicidal Activity ECHCG (phytotoxicity rating) ([12]; 250 g ai/ha): 0
- Post-emerge Herbicidal Activity SETVI (phytotoxicity rating) ([13]; 63 g ai/ha): 0
- Post-emerge Herbicidal Activity SETVI (phytotoxicity rating) ([13]; 250 g ai/ha): 0
- Post-emerge Herbicidal Activity IPOHE (phytotoxicity rating) ([14]; 63 g ai/ha): 80
- Post-emerge Herbicidal Activity IPOHE (phytotoxicity rating) ([14]; 250 g ai/ha): 80
- Post-emerge Herbicidal Activity SORHA (phytotoxicity rating) ([15]; 63 g ai/ha): 0
- Post-emerge Herbicidal Activity SORHA (phytotoxicity rating) ([15]; 250 g ai/ha): 0
- Post-emerge Herbicidal Activity CHEAL (phytotoxicity rating) ([16]; 63 g ai/ha): 30
- Post-emerge Herbicidal Activity CHEAL (phytotoxicity rating) ([16]; 250 g ai/ha): 60
- Post-emerge Herbicidal Activity DIGSA (phytotoxicity rating) ([17]; 63 g ai/ha): 0
- Post-emerge Herbicidal Activity DIGSA (phytotoxicity rating) ([17]; 250 g ai/ha): 0
- Post-emerge Herbicidal Activity AMARE (phytotoxicity rating) [18, 23]: 10
- Post-emerge Herbicidal Activity AMARE (phytotoxicity rating) [18, 24]: 30
- Post-emerge Herbicidal Activity CASOB (phytotoxicity rating) ([19]; 63 g ai/ha): 20
- Post-emerge Herbicidal Activity CASOB (phytotoxicity rating) ([19]; 250 g ai/ha): 10
- Post-emerge Herbicidal Activity ABUTH (phytotoxicity rating) ([20]; 63 g ai/ha): 70
- Post-emerge Herbicidal Activity ABUTH (phytotoxicity rating) ([20]; 250 g ai/ha): 70
- Post-emerge Herbicidal Activity CORN (crop damage rating) ([21]; 63 g ai/ha): 0
- Post-emerge Herbicidal Activity CORN (crop damage rating) ([21]; 250 g ai/ha): 5
- Post-emerge Herbicidal Activity RICE (crop damage rating) ([22]; 63 g ai/ha): 0
- Post-emerge Herbicidal Activity RICE (crop damage rating) ([22]; 250 g ai/ha): 0
